Our source for the EC50 values is US10118902B2 (Sanford Burnham Prebys Medical Discovery Institute, priority 2014, dated 2018).

The experiment deals with neurotensin receptor 1 (NTR1) (Homo sapiens (Human), UniProt P30989). As to the kind of experiment: NTR1 dose response, high-content imaging beta-arrestin-GFP assay in NTR1-U2OS cells. In kind it is cell-based. Particulars: read-out: EC50.
Sequence of neurotensin receptor 1 (NTR1) (P30989 whole entry, species assumed): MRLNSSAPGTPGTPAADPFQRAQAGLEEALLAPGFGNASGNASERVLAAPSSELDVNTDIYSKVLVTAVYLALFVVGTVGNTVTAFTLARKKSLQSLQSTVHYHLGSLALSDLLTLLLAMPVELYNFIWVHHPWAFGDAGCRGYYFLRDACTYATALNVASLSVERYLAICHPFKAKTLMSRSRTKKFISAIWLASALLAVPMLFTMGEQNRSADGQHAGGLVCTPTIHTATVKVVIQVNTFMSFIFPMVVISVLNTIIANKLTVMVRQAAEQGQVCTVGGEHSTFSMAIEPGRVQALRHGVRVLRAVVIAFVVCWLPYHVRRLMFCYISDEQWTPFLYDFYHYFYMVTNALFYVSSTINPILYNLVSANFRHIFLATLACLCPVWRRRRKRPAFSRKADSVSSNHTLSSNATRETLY
With `CCCN(C)c1cccc2nc(C3CC3)nc(N3CCC(c4ccccc4OC)CC3)c12` [Example 131, {2-cyclopropyl-4-[4-(2-methoxy-phenyl)-piperidin-1-yl]-quinazolin-5-yl}-methyl-propyl-amine], the 50% effective concentration (EC50) lay within 2 to 10 µM. With `COc1ccccc1C1CCN(c2nc(C3CC3)nc3ccc(N(C)CCO)c(F)c23)CC1` [Example 132, 2-((2-cyclopropyl-5-fluoro-4-(4-(2-methoxyphenyl)piperidin-1-yl)quinazolin-6-yl)(methyl)amino)ethanol] the figure was 0.5 to 2 µM; with `COc1ccccc1C1CCN(c2nc(C3CC3)nc3c(F)cc(N(C)CCO)cc23)CC1` [Example 133, 2-((2-cyclopropyl-8-fluoro-4-(4-(2-methoxyphenyl)piperidin-1-yl)quinazolin-6-yl)(methyl)amino)ethanol], < 0.5 µM; with `COc1ccccc1C1CCN(c2nc(C3CC3)nc3cnc(N(C)CCN4CCOCC4)cc23)CC1` [Example 134, 2-cyclopropyl-4-(4-(2-methoxyphenyl)piperidin-1-yl)-N-methyl-N-(2-morpholinoethyl)pyrido[3,4-d]pyrimidin-6-amine], 0.5 to 2 µM. As to `CCCN(C)c1ccc2c(N3CCC(c4ccccc4OC)CC3)nc(C3CC3)nc2c1` [Example 135, 2-cyclopropyl-4-(4-(2-methoxyphenyl)piperidin-1-yl)-N-methyl-N-propylquinazolin-7-amine], the concentration giving a half-maximal response (EC50) was > 10 µM. With `COc1ccccc1C1CCN(c2nc(C#CC3CC3)nc3ccc(N(C)CCO)cc23)CC1` [Example 136, 2-((2-(cyclopropylethynyl)-4-(4-(2-methoxyphenyl)piperidin-1-yl)quinazolin-6-yl)(methyl)amino)ethanol] the figure was 2 to 10 µM; with `COc1ccccc1C1CCN(c2nc(C3CC3)nc3cnc(N(C)CCO)cc23)CC1` [Example 137, 2-({2-cyclopropyl-4-[4-(2-methoxy-phenyl)-piperidin-1-yl]-pyrido[3,4-d]pyrimidin-6-yl}-methyl-amino)-ethanol], < 0.5 µM; with `COc1ccsc1C1CCN(c2nc(C3CC3)nc3ccc(N(C)CCO)cc23)CC1` [Example 138, 2-((2-cyclopropyl-4-(4-(3-methoxythiophen-2-yl)piperidin-1-yl)quinazolin-6-yl)(methyl)amino)ethanol], 0.5 to 2 µM. Turning to `CN(CCO)c1ccc2nc(C3(F)CC3)nc(N3CCC(C4CCCCC4)CC3)c2c1` [Example 139, 2-((4-(4-cyclohexylpiperidin-1-yl)-2-(1-fluorocyclopropyl)quinazolin-6-yl)(methyl)amino)ethanol], the EC50 was > 10 µM.

On to `CN(CCO)c1ccc2nc(C3CC3)nc(N3CCN(C4CCCC4O)CC3)c2c1` (stereo not shown) [Example 140, 2-(4-{2-cyclopropyl-6-[(2-hydroxy-ethyl)-methyl-amino]-quinazolin-4-yl}-piperazin-1-yl)-cyclopentanol], for which the concentration for a half-maximal effect (EC50) is > 10 µM.

Regarding `CCCN(C)c1ccc2nc(C3CC3)nc(N3CCN(C4CCCC4O)CC3)c2c1` (stereo not shown) [Example 141, 2-{4-[2-cyclopropyl-6-(methyl-propyl-amino)-quinazolin-4-yl]-piperazin-1-yl}-cyclopentanol], the EC50 is > 10 µM. For `CN(CCN1CCOCC1)c1ccc2nc(C3CC3)nc(N3CCN(C4CCCC4O)CC3)c2c1` (stereo not shown) [Example 142, 2-(4-{2-cyclopropyl-6-[methyl-(2-morpholin-4-yl-ethyl)-amino]-quinazolin-4-yl}-piperazin-1-yl)-cyclopentanol], the EC50 is > 10 µM. Regarding `COc1ccccc1C1CCN(c2nc(-c3ccccc3)nc3ccc(N(C)C)cc23)CC1` [Example 143], the EC50 is > 10 µM. In the case of `COc1ccccc1C1CCN(c2nc(-c3ccccc3)nc3ccc(N(C)CCO)cc23)CC1` [Example 144, 2-({4-[4-(2-methoxy-phenyl)-piperidin-1-yl]-2-phenyl-quinazolin-6-yl}-methyl-amino)-ethanol], the half-maximal effective concentration (EC50) is 2 to 10 µM. With `COCCN(C)c1ccc2nc(-c3ccccc3)nc(N3CCC(c4ccccc4OC)CC3)c2c1` [Example 145, (2-methoxy-ethyl)-{4-[4-(2-methoxy-phenyl)-piperidin-1-yl]-2-phenyl-quinazolin-6-yl}-methyl-amine], the EC50 is > 10 µM.

`CCCN(C)c1ccc2nc(-c3ccccc3)nc(N3CCC(c4ccccc4OC)CC3)c2c1` [Example 146, {4-[4-(2-methoxy-phenyl)-piperidin-1-yl]-2-phenyl-quinazolin-6-yl}-methyl-propyl-amine]: the EC50 is > 10 µM. With `COc1ccccc1C1CCN(c2nc(-c3ccccc3)nc3ccc(N(C)CCN4CCOCC4)cc23)CC1` [Example 147, {4-[4-(2-methoxy-phenyl)-piperidin-1-yl]-2-phenyl-quinazolin-6-yl}-methyl-(2-morpholin-4-yl-ethyl)-amine] the figure was > 10 µM; with `COc1cccc2c1CN(c1nc(C3CC3)nc3ccc(N(C)CCO)cc13)C2` [Example 149, 2-{[2-cyclopropyl-4-(4-methoxy-1,3-dihydro-isoindol-2-yl)-quinazolin-6-yl]-methyl-amino}-ethanol], > 10 µM; with `COc1cccc2c1CCN(c1nc(C3CC3)nc3ccc(N(C)CCO)cc13)CC2` [Example 150, 2-{[2-cyclopropyl-4-(6-methoxy-1,2,4,5-tetrahydro-benzo[d]azepin-3-yl)-quinazolin-6-yl]-methyl-amino}-ethanol], > 10 µM. On to `COc1ccccc1N(C)C1CCCC1Nc1nc(C2CC2)nc2ccc(N(C)CCO)cc12` (stereo not shown) [Example 151, 2-[(2-cyclopropyl-4-{2-[(2-methoxy-phenyl)-methyl-amino]-cyclopentylamino}-quinazolin-6-yl)-methyl-amino]-ethanol], for which the EC50 was > 10 µM. As to `CCCN(C)c1ccc2nc(C3CC3)nc(NC3CCCC3N(C)c3ccccc3OC)c2c1` (stereo not shown) [Example 152, 2-cyclopropyl-N4-{2-[(2-methoxy-phenyl)-methyl-amino]-cyclopentyl}-N6-methyl-N6-propyl-quinazoline-4,6-diamine], the EC50 is > 10 µM. With `COc1ccccc1N1CCC(Nc2nc(C3CC3)nc3ccc(N(C)CCO)cc23)C1` (stereo not shown) [Example 154, 2-((2-cyclopropyl-4-((1-(2-methoxyphenyl)pyrrolidin-3-yl)amino)quinazolin-6-yl)(methyl)amino)ethanol] the figure was > 10 µM; with `CCCN(C)c1ccc2nc(C3CC3)nc(NC3CCN(c4ccccc4OC)C3)c2c1` (stereo not shown) [Example 155, 2-cyclopropyl-N4-(1-(2-methoxyphenyl)pyrrolidin-3-yl)-N6-methyl-N6-propylquinazoline-4,6-diamine], > 10 µM. Take `COC(=O)Cc1c(C)nc(C2CC2)nc1N1CCC(c2ccccc2OC)CC1` [Example 156, Methyl 2-(2-cyclopropyl-4-(4-(2-methoxyphenyl)piperidin-1-yl)-6-methylpyrimidin-5-yl)acetate]: the EC50 was > 10 µM. With `COc1ccccc1C1CCN(c2nc(C3CC3)nc(C)c2CC(=O)N(C)C)CC1` [Example 157, 2-{2-cyclopropyl-4-[4-(2-methoxy-phenyl)-piperidin-1-yl]-6-methyl-pyrimidin-5-yl}-N,N-dimethyl-acetamide], the concentration for a half-maximal effect (EC50) is > 10 µM. As to `CCCN(C)C(=O)Cc1c(C)nc(C2CC2)nc1N1CCC(c2ccccc2OC)CC1` [Example 158, 2-{2-cyclopropyl-4-[4-(2-methoxy-phenyl)-piperidin-1-yl]-6-methyl-pyrimidin-5-yl}-N-methyl-N-propyl-acetamide], the 50% effective concentration (EC50) was > 10 µM.

Consider `COc1ccccc1C1CCN(c2nc(C3CC3)nc(C)c2CC(=O)Nc2ccccc2)CC1` [Example 160], for which the concentration giving a half-maximal response (EC50) is > 10 µM. For the compound `COC(=O)Cc1c(C)nc(N2CCC(c3ccccc3OC)CC2)nc1C1CC1` [Example 161, {4-cyclopropyl-2-[4-(2-methoxy-phenyl)-piperidin-1-yl]-6-methyl-pyrimidin-5-yl}-acetic acid methyl ester], the EC50 was > 10 µM.

For `CCCN(C)C(=O)Cc1c(C)nc(N2CCC(c3ccccc3OC)CC2)nc1C1CC1` [Example 162, 2-{4-cyclopropyl-2-[4-(2-methoxy-phenyl)-piperidin-1-yl]-6-methyl-pyrimidin-5-yl}-N-methyl-N-propyl-acetamide], the EC50 was > 10 µM.

`COc1ccccc1C1CCN(c2nc(C)c(CC(=O)N(C)CCO)c(C3CC3)n2)CC1` [Example 163, 2-{4-cyclopropyl-2-[4-(2-methoxy-phenyl)-piperidin-1-yl]-6-methyl-pyrimidin-5-yl}-N-(2-hydroxy-ethyl)-N-methyl-acetamide]: the EC50 is > 10 µM. With `CCCN(C)C(=O)Cc1cnc(C2CC2)nc1N1CCC(c2ccccc2OC)CC1` [Example 165, 2-{2-cyclopropyl-4-[4-(2-methoxy-phenyl)-piperidin-1-yl]-pyrimidin-5-yl}-N-methyl-N-propyl-acetamide] the figure was > 10 µM; with `COc1ccccc1C1CCN(c2nc(C3CC3)nc3ccc(N(C)CCO)c(F)c23)CC1` [Example 167, 2-({2-Cyclopropyl-5-fluoro-4-[4-(2-methoxy-phenyl)-piperidin-1-yl]-quinazolin-6-yl}-methyl-amino)-ethanol], 0.5 to 2 µM; with `COc1ccccc1C1CCN(c2nc(C3CC3)nc3cccc(N(C)CCO)c23)CC1` [Example 168, 2-({2-Cyclopropyl-4-[4-(2-methoxy-phenyl)-piperidin-1-yl]-quinazolin-5-yl}-methyl-amino)-ethanol], > 10 µM. In the case of `COc1ccccc1C1CCN(c2nc(C3CC3)nc3cc(N(C)CCO)ccc23)CC1` [Example 169, 2-({2-Cyclopropyl-4-[4-(2-methoxy-phenyl)-piperidin-1-yl]-quinazolin-7-yl}-methyl-amino)-ethanol] it was 2 to 10 µM; in that of `CCCN(C)c1ccc2c(N3CCC(c4ccccc4OC)CC3)nc(C3CC3)nc2c1` [Example 170, {2-Cyclopropyl-4-[4-(2-methoxy-phenyl)-piperidin-1-yl]-quinazolin-7-yl}-methyl-propyl-amine], 2 to 10 µM; in that of `COc1ccccc1C1CCN(c2nc(C3(F)CC3)nc3cc(F)c(N(C)CCO)cc23)CC1` [Example 171], < 0.5 µM.

As to `COc1ccccc1C1CCN(c2nc(C3(F)CC3)nc3cc(Cl)c(N(C)CCO)cc23)CC1` [Example 172], the EC50 is 0.5 to 2 µM.

One may read the EC50 as the midpoint of the concentration-response curve.
